In patent US8906852B2 (MethylGene Inc., priority 2010, dated 2014):

These compounds were tested against T1, VEGFR/KDR (Homo sapiens, UniProt P35968) (assay: VEGFR/KDR kinase inhibition, DELFIA assay). Details: ATP 0.6 uM (2x Km), enzyme 5 nM.
T1 construct: made in house; host or cells: Sf9 cells (Spodoptera frugiperda), baculovirus
Assay type: biochemical
Method: Inhibition of VEGFR/KDR is measured in a DELFIA™ assay (Perkin Elmer). The substrate poly(Glu4, Tyr) is immobilized onto black high-binding polystyrene 96-well plates. The coated plates are washed and stored at 4° C. During the assay, the enzyme is pre-incubated with inhibitor and Mg-ATP on ice in polypropylene 96-well plates for 4 minutes, and then transferred to the coated plates. The subsequent kinase reaction takes place at 30° C. for 10-30 minutes. ATP concentrations in the assay are 0.6 uM for VEGFR/KDR (2× the Km). Enzyme concentration is 5 nM. After incubation, the kinase reactions are quenched with EDTA and the plates are washed. Phosphorylated product is detected by incubation with Europium-labeled anti-phosphotyrosine MoAb. After washing the plates, bound MoAb is detected by time-resolved fluorescence in a Gemini SpectraMax reader (Molecular Devices). Compounds are evaluated over a range of concentrations, and IC50 values (concentration of compounds giving 50% inhibition of enzymatic activity) are determined.

T1 sequence (P35968 806-1356): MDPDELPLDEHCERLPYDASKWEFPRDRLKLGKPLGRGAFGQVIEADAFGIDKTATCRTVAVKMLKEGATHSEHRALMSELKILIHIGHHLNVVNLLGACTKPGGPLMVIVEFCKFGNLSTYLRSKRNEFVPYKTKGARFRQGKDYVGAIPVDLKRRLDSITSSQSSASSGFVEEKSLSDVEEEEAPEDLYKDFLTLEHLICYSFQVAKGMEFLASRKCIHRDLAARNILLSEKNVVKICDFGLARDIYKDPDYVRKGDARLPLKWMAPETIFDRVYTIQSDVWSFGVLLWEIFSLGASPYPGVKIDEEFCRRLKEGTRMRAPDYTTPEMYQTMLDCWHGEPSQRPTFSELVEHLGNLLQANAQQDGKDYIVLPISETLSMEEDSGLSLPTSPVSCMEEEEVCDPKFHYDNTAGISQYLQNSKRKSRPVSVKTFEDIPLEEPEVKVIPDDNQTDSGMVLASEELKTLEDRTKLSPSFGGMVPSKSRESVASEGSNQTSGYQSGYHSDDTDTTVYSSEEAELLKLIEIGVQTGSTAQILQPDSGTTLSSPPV

IC50 [nM]	Structure (SMILES)
< 50	O=C(Nc1ccc(Oc2ccnc3cc(-c4ccc(CN5CCN(CCN6CCOCC6)CC5)cn4)sc23)c(F)c1)NC1CC1 [Compound 54-A, 1-cyclopropyl-3-(3-fluoro-4-(2-(5-((4-(2-morpholinoethyl)piperazin-1-yl)methyl)pyridin-2-yl)thieno[3,2-b]pyridin-7-yloxy)phenyl)urea]
< 50	CN1CCCN(Cc2ccc(-c3cc4nccc(Oc5ccc(NC(=O)NC6CC6)cc5F)c4s3)nc2)CC1 [Compound 54-B, 1-cyclopropyl-3-(3-fluoro-4-(2-(5-((4-methyl-1,4-diazepan-1-yl)methyl)pyridin-2-yl)thieno[3,2-b]pyridin-7-yloxy)phenyl)urea]
< 50	CN1CCC(CN2CCN(Cc3ccc(-c4cc5nccc(Oc6ccc(NC(=O)NC7CC7)cc6F)c5s4)nc3)CC2)CC1 [Compound 54-D, 1-cyclopropyl-3-(3-fluoro-4-(2-(5-((4-((1-methylpiperidin-4-yl)methyl)piperazin-1-yl)methyl)pyridin-2-yl)thieno[3,2-b]pyridin-7-yloxy)phenyl)urea]
< 50	CC(C)N1CCN(Cc2ccc(-c3cc4nccc(Oc5ccc(NC(=O)NC6CC6)cc5F)c4s3)nc2)CC1 [Compound 54-E, 1-cyclopropyl-3-(3-fluoro-4-(2-(5-((4-isopropylpiperazin-1-yl)methyl)pyridin-2-yl)thieno[3,2-b]pyridin-7-yloxy)phenyl)urea]
< 50	CS(=O)(=O)N1CCN(Cc2ccc(-c3cc4nccc(Oc5ccc(NC(=O)NC6CC6)cc5F)c4s3)nc2)CC1 [Compound 54-F, 1-cyclopropyl-3-(3-fluoro-4-(2-(5-((4-(methylsulfonyl)piperazin-l-yl)methyl)pyridin-2-yl)thieno[3,2-b]pyridin-7-yloxy)phenyl)urea]
< 50	O=C(Nc1ccc(Oc2ccnc3cc(-c4ccc(CN5CCN(CCn6ccnc6)CC5)cn4)sc23)c(F)c1)NC1CC1 [Compound 54-G, 1-(4-(2-(5-((4-(2-(1H-imidazol-1-yl)ethyl)piperazin-l-yl)methyl)pyridin-2-yl)thieno[3,2-b]pyridin-7-yloxy)-3-fIuorophenyl)-3-cyclopropylurea]
< 50	COCCN1CCN(Cc2ccc(-c3cc4nccc(Oc5ccc(NC(=O)NC6CC6)cc5F)c4s3)nc2)CC1 [Compound 56]
< 50	N#CCCN1CCN(Cc2ccc(-c3cc4nccc(Oc5ccc(NC(=O)NC6CC6)cc5F)c4s3)nc2)CC1 [Compound 57, 1-(4-(2-(5-((4-(2-cyanoethyl)piperazin-1-yl)methyl)pyridin-2-yl)thieno[3,2-b]-pyridin-7-yloxy)-3-fluorophcnyl)-3-cyclopropylurea]
< 50	CCOC(=O)C1CCN(Cc2ccc(-c3cc4nccc(Oc5ccc(NC(=O)NC6CC6)cc5F)c4s3)nc2)CC1 [Compound 58, ethyl 1-((6-(7-(4-(3-cyclopropylureido)-2-fluorophenoxy)-thieno[3,2-b]pyridin-2-yl)pyridin-3-yl)methyl)piperidine-4-carboxylate]
< 50	CCOC(=O)CC1CCN(Cc2ccc(-c3cc4nccc(Oc5ccc(NC(=O)NC6CC6)cc5F)c4s3)nc2)CC1 [Compound 59, ethyl 2-(1-((6-(7-(4-(3-cyclopropylureido)-2-fluorophenoxy)-thieno[3,2-b]pyridin-2-yl)pyridin-3-yl)methyl)piperidin-4-yl)acelate]
< 50	CCOC(=O)CN1CCN(Cc2ccc(-c3cc4nccc(Oc5ccc(NC(=O)NC6CC6)cc5F)c4s3)nc2)CC1 [Compound 60, ethyl 2-(4-((6-(7-(4-(3-cyclopropylureido)-2-fluorophenoxy)-thieno[3,2-b]pyridin-2-yl)pyridin-3-yl)methyl)piperazin-1-yl)acetate]
< 50	O=C(O)CN1CCN(Cc2ccc(-c3cc4nccc(Oc5ccc(NC(=O)NC6CC6)cc5F)c4s3)nc2)CC1 [Compound 61, 2-(4-((6-(7-(4-(3-cyclopropylureido)-2-fluorophenoxy)thieno[3,2-b]pyridin-2-yl)pyridin-3-yl)methyl)piperazin-1-yl)acetic acid]
< 50	O=C(Nc1ccc(Oc2ccnc3cc(-c4ccc(CN5CCC(C(=O)O)CC5)cn4)sc23)c(F)c1)NC1CC1 [Compound 62, l-((6-(7-(4-(3-cyclopropylureido)-2-fluorophenoxy)thieno[3,2-b]pyridin-2-yl)pyridin-3-yl)methyl)piperidine-4-carboxylic acid]
< 50	O=C(O)CC1CCN(Cc2ccc(-c3cc4nccc(Oc5ccc(NC(=O)NC6CC6)cc5F)c4s3)nc2)CC1 [Compound 63, 2-(l-((6-(7-(4-(3-cyclopropylureido)-2-fluorophenoxy)thieno[3,2-b]pyridin-2-yl)pyridin-3-yl)methyl)piperidin-4-yl)acetic acid]
< 50	CC(=O)N1CCN(Cc2ccc(-c3cc4nccc(Oc5ccc(NC(=O)NC6CC6)cc5F)c4s3)nc2)CC1 [Compound 66, 1-(4-(2-(5-((4-acetylpiperazin-1-yl)methyl)pyridin-2-yl)thieno[3,2-b]pyridin-7-yloxy)-3-fluorophenyl)-3-cyclopropylurea]
< 50	O=C1CN(Cc2ccc(-c3cc4nccc(Oc5ccc(NC(=O)NC6CC6)cc5F)c4s3)nc2)CCN1 [Compound 67, l-cyclopropyl-3-(3-fluoro-4-(2-(5-((3-oxopiperazin-1-yl)methyl)pyridin-2-yl)thieno[3,2-b]-pyridin-7-yloxy)phenyl)urea]
< 50	CCOC(=O)CCN1CCN(Cc2ccc(-c3cc4nccc(Oc5ccc(NC(=O)NC6CC6)cc5F)c4s3)nc2)CC1 [Compound 68, ethyl 3-(4-((6-(7-(4-(3-cyclopropyl-ureido)-2-fluorophenoxy)-thieno[3,2-b]-pyridin-2-yl)pyridin-3-yl)methyl)piperazin-1-yl)propanoate]
< 50	O=C(O)CCN1CCN(Cc2ccc(-c3cc4nccc(Oc5ccc(NC(=O)NC6CC6)cc5F)c4s3)nc2)CC1 [Compound 70, 3-(4-((6-(7-(4-(3-cyclopropylureido)-2-fluorophenoxy)thieno[3,2-b]pyridin-2-yl)pyridin-3-yl)methyl)piperazin-1-yl)propanoic acid]
< 50	O=C(Nc1ccc(Oc2ccnc3cc(-c4ccc(CN5CCNCC5=O)cn4)sc23)c(F)c1)NC1CC1 [Compound 72]
< 50	O=C(Nc1ccc(Oc2ccnc3cc(-c4ccc(CN5C[C@@H]6C[C@H]5CN6)cn4)sc23)c(F)c1)NC1CC1 [Compound 73]
< 50	CC(C)[C@H](N)C(=O)N1CCN(Cc2ccc(-c3cc4nccc(Oc5ccc(NC(=O)NC6CC6)cc5F)c4s3)nc2)CC1 [Compound 76, (S)-1-(4-(2-(5-((4-(2-amino-3-methylbutanoyl)piperazin-1-yl)methyl)pyridin-2-yl)thieno[3,2-b]pyridin-7-yloxy)-3-fluorophenyl)-3-cyclopropylurea]
< 50	NCC(=O)N1CCN(Cc2ccc(-c3cc4nccc(Oc5ccc(NC(=O)NC6CC6)cc5F)c4s3)nc2)CC1 [Compound 77, 1-(4-(2-(5-((4-(2-aminoacetyl)piperazin-1-yl)methyl)pyridin-2-yl)thieno[3,2-b]-pyridin-7-yloxy)-3-fluorophenyl)-3-cyclopropylurea]
< 50	CC(C)[C@H](N)C(=O)OCCN1CCN(Cc2ccc(-c3cc4nccc(Oc5ccc(NC(=O)NC6CC6)cc5F)c4s3)nc2)CC1 [Compound 79, (S)-2-(4-((6-(7-(4-(3-cyclopropylureido)-2-fluorophenoxy)thieno[3,2-b]pyridin-2-yl)pyridin-3-yl)methyl)piperazin-1-yl)ethyl 2-amino-3-methylbutanoate]
< 50	CNC(=O)CCN1CCN(Cc2ccc(-c3cc4nccc(Oc5ccc(NC(=O)NC6CC6)cc5F)c4s3)nc2)CC1 [Compound 81, 3-(4-((6-(7-(4-(3-cyclopropylureido)-2-fluorophenoxy)thieno[3,2-b]pyridin-2-yl)pyridin-3-yl)methyl)piperazin-1-yl)-N-methylpropanamide]
< 50	NC(=O)CCN1CCN(Cc2ccc(-c3cc4nccc(Oc5ccc(NC(=O)NC6CC6)cc5F)c4s3)nc2)CC1 [Compound 82, 3-(4-((6-(7-(4-(3-cyclopropylureido)-2-fIuorophenoxy)-thieno[3,2-b]pyridin-2-yl)pyridin-3-yl)methyl)piperazin-l-yl)propanamide]
< 50	O=C(Nc1ccc(Oc2ccnc3cc(-c4ccc(CN5CCN(CC(F)(F)F)CC5)cn4)sc23)c(F)c1)NC1CC1 [Compound 84, 1-cyclopropyl-3-(3-fluoro-4-(2-(5-((4-(2,2,2-trifluoroethyl)piperazin-1-yl)methyl)-pyridin-2-yl)thieno[3,2-b]pyridin-7-yloxy)phenyl)urea]
< 50	COCCN(Cc1ccc(-c2cc3nccc(Oc4ccc(NC(=O)NC5CC5)cc4F)c3s2)nc1)C(=O)COC [Compound 85]
< 50	CCC(=O)N(CCOC)Cc1ccc(-c2cc3nccc(Oc4ccc(NC(=O)NC5CC5)cc4F)c3s2)nc1 [Compound 86, N-((6-(7-(4-(3-cyclopropylureido)-2-fluorophenoxy)thieno[3,2-b]pyridin-2-yl)pyridin-3-yl)methyl)-N-(2-methoxyethyl)propionamide]
< 50	COCCN(Cc1ccc(-c2cc3nccc(Oc4ccc(NC(=O)NC5CC5)cc4F)c3s2)nc1)C(=O)[C@@H](N)C(C)(C)C [Compound 88, (S)-2-amino-N-((6-(7-(4-(3-cyclopropylureido)-2-fluorophenoxy)thieno[3,2-b]pyridin-2-yl)pyridin-3-yl)methyl)-N-(2-methoxyethyl)-3,3-dimethylbutanamide]
